Format in all cases: in vivo
Test [1] relates to H. felis-infected INS-GAS mice. Nature of the test: Gastric mucosa histological evaluation and scoring. Particulars: for Corpus histological score: Atrophy / Corpus histological score: Dysplasia / Corpus histological score: Hyperplasia / Corpus histological score: Inflammation: scale 0 to 4, mean ± SD. From the text: (§1) The insulin-gastrin (INS-GAS) transgenic mice (FVB/N background) have been described previously (Wang, T. C. et al., 2000; Wang T. C. et al., 1993) and were free of specific pathogens. Animals were housed in microisolator, solid-bottomed polycarbonate cages, fed a commercially prepared pelleted diet, and given water ad libitum. One hundred twenty four (124) male INS-GAS mice at 2 or 3 months of age were inoculated with Helicobacter felis (ATCC 49179) as previously described (Wang, T. C. et al., 2000). Infection status was confirmed at 14 weeks and 26 weeks post inoculation by enzyme-linked immunosorbent assay (ELISA) to measure immunoglobulin IgG antibody to H. felis, and by quantitative real-time PCR assays of gastric corpus tissue at necropsy as described below. All experiments were approved by the Institutional Animal Care and Use Committee of University of Massachusetts Medical School.
Mice in group III were treated orally with the histamine H2 receptor antagonist loxtidine (in drinking water) at a dose of 0.5 g/L, while group IV mice received both drugs. For the 3 months drug study of inhibitory effects on maximal acid secretion, gastric atrophy, hyperplasia and dysplasia, 8 mice were prepared for each group. For the 6 months drug study of inhibitory effects on gastric carcinogenesis, 17 mice were prepared for each group.
The proton pump inhibitor omeprazole was purchased from Sigma (St. Louis Mo.) and dissolved in dimethylsulfoxide (DMSO)/PEG300, a 1:1 mixture at the concentration of 40 mg/ml, and injected intraperitoneally daily at the dose of […] (=350 micromole/kg) for 3 months. Twenty four (24) mice were divided into four groups. Mice in group A were controls treated with vehicle only, whereas group B mice were treated with omeprazole alone. Group C and D mice were treated with combination of omeprazole and YF476 or loxtidine, respectively.
At necropsy, linear strips extending from the squamocolumnar junction through the proximal duodenum were fixed in 10% neutral-buffered formalin, paraffin-embedded, cut at 5 microns, and stained with hematoxylin and eosin. Indices of injury in the gastric cardia/corpus and antrum were scored on an ordinal scale from 0 to 4 in increments of 0.5 by a single veterinary pathologist (A.B.R.) blinded to treatment groups. Paraffin-embedded sections were also stained with the Warthin-Starry silver staining method for detection of H.felis as previously described (Fox, J. G. et al., 2003).

Another test concerns Helicobacter felis. Nature of the test: H. felis infection status (Warthin-Starry staining, IgG ELISA, real-time PCR). As to conditions: quantitative real-time PCR; n=6.
Text: as §1, with “All experiments were approved by the Institutional Animal Care and Use Committee of University of Massachusetts Medical School.” left out
At necropsy, linear strips extending from the squamocolumnar junction through the proximal duodenum were fixed in 10% neutral-buffered formalin, paraffin-embedded, cut at 5 microns, and stained with hematoxylin and eosin. Indices of injury in the gastric cardia/corpus and antrum were scored on an ordinal scale from 0 to 4 in increments of 0.5 by a single veterinary pathologist (A.B.R.) blinded to treatment groups. […]
Plasma gastrin levels (COOH-terminally amidated gastrin) were determined by radioimmunoassay using rabbit antiserum L2 that reacts similarly with G17 and […]. […]
(In general: ELISA stands for enzyme-linked immunosorbent assay.)

The next test relates to IL-4. Nature of the test: Real-time RT-PCR of cytokine expression: IL-4. As to conditions: 6 months; versus untreated mice; listed as loxtidine alone. As for the experimental part:
Real-time RT-PCR assay of growth factors and cytokine expression profiles Total RNAs were extracted from a sample of whole stomach from each animal with Trizol (Invitrogen, Calif.) and five micrograms of total RNA were used for first strand cDNA synthesis using Superscript II cDNA amplification System (Invitrogen, Calif.) following manufacturer's instructions. Real-time PCR was performed as above using RT-PCR primers for each gene as listed below. All primers were designed using Lasergene ver5.0 software (DNASTAR inc., Madison, Wis.). Results were calculated by minus delta delta threshold cycle (-ΔΔCt) method (Livak, K. J. et al., 2001). Briefly, the threshold cycle Ct1 of each sample reaction was deducted from the threshold cycle Ct2 of GAPDH reaction for normalization, and then deducted from the threshold cycle Ct3 of calibration control (45 cycles in this experiment), i.e., the final result was represented by the formula; Ct3-(Ct1-Ct2). […]
Background: In qPCR the cycle at which signal appears reflects the starting amount.

Entries after “also recorded” stand apart in the source; their conditions may differ.

For “1-methyl-5-((3-(3-(1-piperidinylmethyl)phenoxy)propyl)amino)-1H-1,2,4-triazole-3-ethanol [Loxtidine]”, the “Histological finding: gastric atrophy, hyperplasia, dysplasia” value in test [1] (3 months treatment, hematoxylin and eosin) is “partially blocked”; in test [1] (3 months treatment, hematoxylin and eosin, listed as loxtidine) it was “partial inhibition of gastric atrophy and foveolar hyperplasia”; in test [1] (3 months treatment, hematoxylin and eosin, listed as loxtidine alone) it was “slight inhibition of Helicobacter-mediated gastric atrophy”. For the same substance, the “Corpus histological score: Atrophy” value in test [1] (3 months treatment, n = 4) was 1.83 ± 0.29; in test [1] (6 months treatment, n = 5) it was 2.67 ± 0.61. Also, the “Corpus histological score: Dysplasia” value came to 1.00 ± 0.50 in test [1] (3 months treatment, n = 4) and 2.17 ± 1.29a in test [1] (6 months treatment, n = 5). Also, the “Corpus histological score: Hyperplasia” value amounted to 1.33 ± 0.58 in test [1] (3 months treatment, n = 4) and 2.42 ± 1.07a in test [1] (6 months treatment, n = 5). For the same substance, the “Corpus histological score: Inflammation” value in test [1] (3 months treatment, n = 4) was 1.83 ± 0.29; in test [1] (6 months treatment, n = 5), 2.33 ± 1.17. In test [1] (6 months treatment, hematoxylin and eosin), the “Histological finding: gastric neoplasia / carcinogenesis” value is on record as “partial inhibition of progression to neoplasia”. Further, the “H. felis DNA copy numbers per gastric corpus DNA (copy/μg) compared with non drug treated mice” value in the test on Helicobacter felis was “no significant difference”. Moreover, the IL-4 expression level entry with IL-4 is “large and significant increase; also recorded: significantly higher level”.

The record behind these values is patent publication US20050042283A1, “Histamine and CCK2/gastrin receptor blockade in the treatment of acid-peptic disease and cancer” (UNIVERSITY OF MASSACHUSETTS, priority 2003, published 2005).
